The values below come from patent US11612581B2, “Cannabis and derivatives thereof for the treatment of pain and inflammation related with dental pulp and bone regeneration related to dental jaw bone defects” (CANNIBITE BVBA, priority 2017, dated 2023).

The subject of experiment [1] is chronic irreversible pulpitis combined with periapical lesion. Description: Root canal treatment with CBD added to dressing and sealer, bone regeneration by X-ray (Patient 1). The format is in vivo, human. As for the experimental part:
Histology slides prepared after pulpectomy of a second mandibular molar diagnosed with chronic irreversible pulpitis combined with periapical lesion (FIG. 6).
The treatment was performed with regular methods, in 2 steps 1 week rest. In the temporary dressing of the root canal medication Hydroxide Calcium was introduced 0.1 ml of CBD (25%) as well in the permanent sealer EWT Ken pulp sealer was introduced 0.5 ml of CBD (25%), pulp canal system sealed with sealer and gutta-percha.
With standard treatment for periapical lesion, regeneration is usually noticed 6 months after treatment.

The test system of experiment [2] is pulp extract from the teeth. The experiment can be described thus: Pulp extract treated in-vitro and sent to pathology lab (samples 1a, 1b). Particulars: 0.1 ml of Clorhexidine Gluconate 2% (sample 1a) or CBD 25% (sample 1b). The format is cell-based, human. The protocol:
The pulp extract from the teeth was treated in-vitro and was sent to pathology lab. Pulp was extracted and separated to two samples:
Sample 1a was treated with 0.1 ml Clorhexidine Gluconate 2%.

For the next experiment, the system named is vestibular canal pulp. The experiment can be described thus: Extracted dental pulp of hemisected wisdom tooth treated with CBD solution (samples 3a, 3b). The format is cell-based, human. Particulars: sample 3b, 0.1 ml 25% solution, compared to 3a (Formalin). As for the experimental part:
A patient with chronic irreversible pulpitis element 28 wisdom tooth.
The element was hemisected and dental pulp extracted from tooth.
Sample 3a: Palatinal pulp was placed in Formalin.
Sample 3b: 0.1 ml CDB (25%) solution was applied to the vestibular canal pulp.

Another experiment deals with live bacterial cells. The experiment can be described thus: Anti-bacterial activity on inflamed dental pulp and dental plaque samples, Dojindo staining, Cytation 5 imaging. Particulars: incubated for 5 min. Type of experiment: cell-based. As for the experimental part: CDB Solutions: Two CBD solutions were prepared at concentrations of 12.5% and 25% by dissolving CDB (as powder, 98% purity) in methanol to obtain the desired concentration.
Samples of inflamed dental pulp and dental plaque were collected from various subjects and incubated at 37° C. for 24 hours
The samples where then treated with CBD solutions (12.5% and 25%) and incubated for 5 min. The samples were stained with Dojindo Rapid staining kit BS02 and evaluated under a Cytation 5 cell imaging microscope.

Experiment [3] has as its system bacteria's from the nerve fiber. The experiment can be described thus: Bacteria on nerve fiber of pulp removed by pulpectomy, phase contrast microscopy without staining. The format is cell-based. The protocol: A patent diagnosed with acute pulpitis with severe signs of pain on cold irritants, percussion pain with x-ray deep caries radiolucent areas adjacent to the coronal pulp. Hyperemia is evident in the dental canal system when opening of the coronal part of pulp chamber.
Pulpectomy (Removal of the entire pulp structure of a tooth, including the pulp tissue in the roots) was performed. The pulp was analyzed by phase contrast microscopy without staining.
Following Pulpectomy a solution of 0.1 ml CBD (25%) was applied for 1 min.
The same application was made with a Clorhexidine gluconate 2% solution used in endodontics to rinse canal system of the roots. A reduction of less than 20% in bacteria's was observed.

A further experiment deals with mid-femoral fractures. The settings on record: rats with mid-femoral fractures, after eight weeks; cited from earlier work.
The conditions of experiment [4]: relative to THC; cited from earlier work.

As for `C=C(C)[C@@H]1CCC(C)=C[C@H]1c1c(O)cc(CCCCC)cc1O` [CBD, cannabidiol], the “bone regeneration on re-examination” value in experiment [1] (8 weeks after treatment) was “total regeneration”. For the same molecule, in experiment [1] (after 1 week, 0.1 ml CBD (25%) in Hydroxide Calcium dressing, 0.5 ml CBD (25%) in sealer), the “bone regeneration in the apical region by X-ray” value is reported as “bone regeneration was identified”. Further, the “pathology lab findings of treated pulp sample” value in experiment [2] was “connective tissue, bone and no bacteria”. Moreover, in the experiment on vestibular canal pulp, the “inflammation and infection of pulp sample” value was “no inflammation and no infection”. For the same molecule, the “reduction in live bacterial cells as compared to an untreated sample” value is recorded as > 75% in the experiment with live bacterial cells (12.5% CBD solution) and > 90% in the experiment with live bacterial cells (25% CBD solution). In addition, the “reduction of bacteria's from the nerve fiber” value in experiment [3] (0.1 ml CBD (25%) applied for 1 min following pulpectomy) is recorded as “total reduction”. For the same molecule, in the experiment on mid-femoral fractures, the bone fractures healing entry was “enhances bone fractures healing”.
As to `N=C(NCCCCCCNC(=N)NC(=N)Nc1ccc(Cl)cc1)NC(=N)Nc1ccc(Cl)cc1.O=C(O)[C@H](O)[C@@H](O)[C@H](O)[C@H](O)CO.O=C(O)[C@H](O)[C@@H](O)[C@H](O)[C@H](O)CO` [Clorhexidine gluconate], the “pathology lab findings of treated pulp sample” value in experiment [2] was “debris, bacteria, and enamel cement”. In experiment [3] (Clorhexidine gluconate 2% solution, same application), the “reduction in bacteria's” value is on record as “less than 20%”.
Turning to `CCCCCc1cc(O)c2c(c1)OC(C)(C)[C@@H]1CC=C(C)C[C@@H]21` [Δ8-THC], in experiment [4], the “less active than THC” value is on record as ~20%.
